# Data published in PubChem BioAssay (NCI).
#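 Exposure lasted 48 hours, with cells grown in 96-well plates and compounds tested at five concentrations. The concentration for 50% growth inhibition is given as GI50. TGI denotes the concentration required for complete inhibition of growth.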
# Legend:
# Assay in all cases: growth of human tumour cells (NCI), 48 h
# HCT-15 colon = tested on: HCT-15 colon
# NCI-H460 lung = tested on: NCI-H460 lung
# MOLT-4 leukemia = tested on: MOLT-4 leukemia
# UACC-62 melanoma = tested on: UACC-62 melanoma
# T-47D breast = tested on: T-47D breast
# SW-620 colon = tested on: SW-620 colon
# SK-MEL-2 melanoma = tested on: SK-MEL-2 melanoma
# IGROV1 ovarian = tested on: IGROV1 ovarian
# PC-3 prostate = tested on: PC-3 prostate
# M14 melanoma = tested on: M14 melanoma
# 786-0 renal = tested on: 786-0 renal
# HOP-92 NSCLC = tested on: HOP-92 NSCLC
# EKVX NSCLC = tested on: EKVX NSCLC
# NCI-H226 lung = tested on: NCI-H226 lung
# RPMI-8226 leukemia = tested on: RPMI-8226 leukemia
# SNB-75 CNS = tested on: SNB-75 CNS
# KM12 colon = tested on: KM12 colon
# OVCAR-4 ovarian = tested on: OVCAR-4 ovarian
# HS 578T breast = tested on: HS 578T breast
# HL-60(TB) leukemia = tested on: HL-60(TB) leukemia
# U251 CNS = tested on: U251 CNS
# SF-295 CNS = tested on: SF-295 CNS
# SF-268 CNS = tested on: SF-268 CNS
# NCI-H522 lung = tested on: NCI-H522 lung
# OVCAR-3 ovarian = tested on: OVCAR-3 ovarian
# RXF 393 renal = tested on: RXF 393 renal
# SK-OV-3 ovarian = tested on: SK-OV-3 ovarian
# BT-549 breast = tested on: BT-549 breast
# SR leukemia = tested on: SR leukemia
# HCC-2998 colon = tested on: HCC-2998 colon
# HCT-116 colon = tested on: HCT-116 colon
# HT29 colon = tested on: HT29 colon
# SK-MEL-5 melanoma = tested on: SK-MEL-5 melanoma
# CAKI-1 renal = tested on: CAKI-1 renal
# OVCAR-5 ovarian = tested on: OVCAR-5 ovarian
# SN12C renal = tested on: SN12C renal
# HOP-62 NSCLC = tested on: HOP-62 NSCLC
# LOX IMVI melanoma = tested on: LOX IMVI melanoma
# MDA-MB-231 breast = tested on: MDA-MB-231 breast
# MALME-3M melanoma = tested on: MALME-3M melanoma
# COLO 205 colon = tested on: COLO 205 colon
# MDA-MB-435 = tested on: MDA-MB-435
# ACHN renal = tested on: ACHN renal
# NCI-H23 lung = tested on: NCI-H23 lung
# MCF7 breast = tested on: MCF7 breast
# K-562 leukemia = tested on: K-562 leukemia
# SF-539 CNS = tested on: SF-539 CNS
# A549 NSCLC = tested on: A549 NSCLC
# MDA-MB-468 breast = tested on: MDA-MB-468 breast
# SNB-19 CNS = tested on: SNB-19 CNS
# OVCAR-8 ovarian = tested on: OVCAR-8 ovarian
# UACC-257 melanoma = tested on: UACC-257 melanoma
# UO-31 renal = tested on: UO-31 renal
# CCRF-CEM leukemia = tested on: CCRF-CEM leukemia
# DU-145 prostate = tested on: DU-145 prostate
# SK-MEL-28 melanoma = tested on: SK-MEL-28 melanoma
# A498 renal = tested on: A498 renal
# TK-10 renal = tested on: TK-10 renal
smiles,measurement,setting,value
COc1ccc([C@H]2C(C(=O)c3ccc(Cl)cc3)C3(N[C@@H]2c2ccccc2)C(=O)Nc2ccc(Br)cc23)cc1 (stereo partly specified),GI50,HCT-15 colon,9.91 µM
same,TGI,HCT-15 colon,20.3 µM
same,GI50,NCI-H460 lung,10.1 µM
same,TGI,NCI-H460 lung,20.9 µM
same,GI50,MOLT-4 leukemia,14.8 µM
same,TGI,MOLT-4 leukemia,47.2 µM
same,GI50,UACC-62 melanoma,8.75 µM
same,TGI,UACC-62 melanoma,16.7 µM
same,GI50,T-47D breast,11.5 µM
same,TGI,T-47D breast,33.4 µM
same,GI50,SW-620 colon,13.9 µM
same,TGI,SW-620 colon,44.8 µM
same,GI50,SK-MEL-2 melanoma,8.37 µM
same,TGI,SK-MEL-2 melanoma,16 µM
same,GI50,IGROV1 ovarian,11 µM
same,TGI,IGROV1 ovarian,25.9 µM
same,GI50,PC-3 prostate,12.2 µM
same,TGI,PC-3 prostate,31.5 µM
same,GI50,M14 melanoma,9.18 µM
same,TGI,M14 melanoma,19.1 µM
same,GI50,786-0 renal,12.4 µM
same,TGI,786-0 renal,32.3 µM
same,GI50,HOP-92 NSCLC,8.27 µM
same,TGI,HOP-92 NSCLC,19.7 µM
same,GI50,EKVX NSCLC,12.4 µM
same,TGI,EKVX NSCLC,42.6 µM
same,GI50,NCI-H226 lung,8.47 µM
same,TGI,NCI-H226 lung,16.4 µM
same,GI50,RPMI-8226 leukemia,14.3 µM
same,TGI,RPMI-8226 leukemia,41 µM
same,GI50,SNB-75 CNS,8.73 µM
same,TGI,SNB-75 CNS,35.4 µM
same,GI50,KM12 colon,11.5 µM
same,TGI,KM12 colon,25.5 µM
same,GI50,OVCAR-4 ovarian,13 µM
same,TGI,OVCAR-4 ovarian,42.4 µM
same,GI50,HS 578T breast,9.96 µM
same,TGI,HS 578T breast,26.6 µM
same,GI50,HL-60(TB) leukemia,11.3 µM
same,TGI,HL-60(TB) leukemia,29.8 µM
same,GI50,U251 CNS,9.18 µM
same,TGI,U251 CNS,18 µM
same,GI50,SF-295 CNS,9.65 µM
same,TGI,SF-295 CNS,20.2 µM
same,GI50,SF-268 CNS,14.4 µM
same,TGI,SF-268 CNS,49.7 µM
same,GI50,NCI-H522 lung,8.97 µM
same,TGI,NCI-H522 lung,20.8 µM
same,GI50,OVCAR-3 ovarian,10.5 µM
same,TGI,OVCAR-3 ovarian,23.3 µM
same,GI50,RXF 393 renal,7.29 µM
same,TGI,RXF 393 renal,16.2 µM
same,GI50,SK-OV-3 ovarian,12.3 µM
same,TGI,SK-OV-3 ovarian,36.8 µM
same,GI50,BT-549 breast,8.66 µM
same,TGI,BT-549 breast,16.6 µM
same,GI50,SR leukemia,12.8 µM
same,TGI,SR leukemia,35.8 µM
same,GI50,HCC-2998 colon,8.82 µM
same,TGI,HCC-2998 colon,17.9 µM
same,GI50,HCT-116 colon,9.7 µM
same,TGI,HCT-116 colon,18.5 µM
same,GI50,HT29 colon,9.03 µM
same,TGI,HT29 colon,17.1 µM
same,GI50,SK-MEL-5 melanoma,8.65 µM
same,TGI,SK-MEL-5 melanoma,16.5 µM
same,GI50,CAKI-1 renal,13.1 µM
same,TGI,CAKI-1 renal,42.4 µM
same,GI50,OVCAR-5 ovarian,9.8 µM
same,TGI,OVCAR-5 ovarian,19.1 µM
same,GI50,SN12C renal,8.53 µM
same,TGI,SN12C renal,16 µM
same,GI50,HOP-62 NSCLC,8.59 µM
same,TGI,HOP-62 NSCLC,16.5 µM
same,GI50,LOX IMVI melanoma,7.86 µM
same,TGI,LOX IMVI melanoma,15.9 µM
same,GI50,MDA-MB-231 breast,8.88 µM
same,TGI,MDA-MB-231 breast,16.5 µM
same,GI50,MALME-3M melanoma,7.69 µM
same,TGI,MALME-3M melanoma,15.1 µM
same,GI50,COLO 205 colon,8.35 µM
same,TGI,COLO 205 colon,16 µM
same,GI50,MDA-MB-435,10.2 µM
same,TGI,MDA-MB-435,20.4 µM
same,GI50,ACHN renal,13.4 µM
same,TGI,ACHN renal,41.6 µM
same,GI50,NCI-H23 lung,10.2 µM
same,TGI,NCI-H23 lung,20.8 µM
same,GI50,MCF7 breast,11.5 µM
same,TGI,MCF7 breast,34.9 µM
same,GI50,K-562 leukemia,15.8 µM
same,TGI,K-562 leukemia,> 53.3 µM
same,GI50,SF-539 CNS,9.47 µM
same,TGI,SF-539 CNS,19.4 µM
same,GI50,A549 NSCLC,11.9 µM
same,TGI,A549 NSCLC,34.2 µM
same,GI50,MDA-MB-468 breast,10.2 µM
same,TGI,MDA-MB-468 breast,27 µM
same,GI50,SNB-19 CNS,15.1 µM
same,TGI,SNB-19 CNS,> 53.3 µM
same,GI50,OVCAR-8 ovarian,9.68 µM
same,TGI,OVCAR-8 ovarian,20.4 µM
same,GI50,UACC-257 melanoma,10.5 µM
same,TGI,UACC-257 melanoma,27.9 µM
same,GI50,UO-31 renal,10.7 µM
same,TGI,UO-31 renal,29.3 µM
same,GI50,CCRF-CEM leukemia,14.4 µM
same,TGI,CCRF-CEM leukemia,40.5 µM
same,GI50,DU-145 prostate,13.5 µM
same,TGI,DU-145 prostate,36.7 µM
same,GI50,SK-MEL-28 melanoma,8.83 µM
same,TGI,SK-MEL-28 melanoma,16.8 µM
same,GI50,A498 renal,10.5 µM
same,TGI,A498 renal,24.8 µM
same,GI50,TK-10 renal,10.8 µM
same,TGI,TK-10 renal,28.7 µM
